Target: T1, KRAS G12C 1-169, his-tagged protein, GDP-loaded (Homo sapiens, UniProt P01116, G12C)
T1 construct: KRAS G12C 1-169, his-tagged protein, GDP-loaded
Test: Biochemical assay: covalent modification of KRAS G12C measured by mass spectrometry (RapidFire/TOF or Q-Exactive)
Conditions: covalent binding to KRAS G12C
In short: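 GDP-loaded his-tagged KRAS G12C 1-169 at 2 μM in 20 mM Hepes, 150 mM NaCl, 1 mM MgCl2 incubated at room temperature with compound (10, 30 or 100 μM final, 2% DMSO) for 30 min, 2 h or 24 h, then quenched with formic acid. Intact-protein LC-MS (RapidFire/TOF or Q-Exactive) with deconvolution quantified modified versus unmodified protein.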

Row | Compound | Binding % (compounds of structure (I)) | also measured
1 | C=CC(=O)N1CCN(c2nc(C(=O)N3CCOCC3)nc3c(F)c(-c4c(O)cccc4F)c(Cl)cc23)CC1 [Example I-49, 1-(4-(6-chloro-8-fluoro-7-(2-fluoro-6-hydroxyphenyl)-2-(morpholine-4-carbonyl)quinazolin-4-yl)piperazin-1-yl) prop-2-en-1-one] | +++ (+++ indicates binding activity greater than 90%) | –
2 | C=CC(=O)N1CCN(c2nc(NC3CCN(C4CC4)CC3)nc3c(F)c(-c4cc(O)cc5ccccc45)c(Cl)cc23)CC1 [Example I-75, 1-(4-(6-chloro-2-(1-cyclo-propylpiperidin-4-ylamino)-8-fluoro-7-(3-hydroxy-naphthalen-1-yl)quinazolin-4-yl)piperazin-1-yl)prop-2-en-1-one] | +++ (+++ indicates binding activity greater than 90%) | –
3 | C=CC(=O)N1CCN(c2nc(NCC3CCN(C4CC4)CC3)nc3c(F)c(-c4c(C)ccc5[nH]ncc45)c(Cl)cc23)CC1 [Example I-160, 1-(4-(6-chloro-2-((1-cyclo-propyl-piperidin-4-yl)methylamino)-8-fluoro-7-(5-methyl-1H-indazol-4-yl)quinazolin-4-yl)piperazin-l-yl) prop-2-en-1-one] | +++ (+++ indicates binding activity greater than 90%) | –
4 | C=CC(=O)N1CCN(c2c(C#N)c(NC3CCN(C4CC4)CC3)nc3c(F)c(-c4c(C)ccc5[nH]ncc45)c(Cl)cc23)CC1 [Example I-202, 4-(4-acryloyl-piperazin-1-yl)-6-chloro-2-((1-cyclopropyl-piperidin-4-yl)amino)-8-fluoro-7-(5-methyl-1H-indazol-4-yl) quinoline-3-carbonitrile] | ++ (++ indicates binding activity from 50 to 90%) | –
5 | C=CC(=O)N1CCN(c2nc(C#N)nc3c(F)c(-c4c(O)cccc4F)c(Cl)cc23)CC1 [Example I-68, 4-(4-acryloyl-piperazin-1-yl)-6-chloro-8-fluoro-7-(2-fluoro-6-hydroxyphenyl) quinazoline-2-carbonitrile] | +++ (+++ indicates binding activity greater than 90%) | –
6 | C=CC(=O)N1CCN(c2nc(N3CCCC3)nc3c(F)c(-c4c(O)cccc4F)c(Cl)cc23)CC1 [Example I-147, 1-(4-(6-chloro-8-fluoro-7-(2-fluoro-6-hydroxyphenyl)-2-(pyrrolidin-1-yl)quinazolin-4-yl)piperazin-1-yl)prop-2-en-1-one] | ++ (++ indicates binding activity from 50 to 90%) | –
7 | C=CC(=O)N1CCN(c2nc(NCCN3CC(F)(F)C3)nc3c(F)c(-c4c(O)cccc4F)c(Cl)cc23)CC1 [Example I-143, 1-(4-(6-chloro-2-(2-(3,3-difluoro-azetidin-1-yl)ethylamino)-8-fluoro-7-(2-fluoro-6-hydroxyphenyl)quinazolin-4-yl)piperazin-1-yl) prop-2-en-1-one] | +++ (+++ indicates binding activity greater than 90%) | –
8 | C=CC(=O)N1CCN(c2nc(NC3CCCN(C4CC4)C3)nc3c(F)c(-c4c(O)cccc4F)c(Cl)cc23)CC1 (stereo not shown) [Example I-120, 1-(4-(6-chloro-2-(1-cyclopropyl-piperidin-3-ylamino)-8-fluoro-7-(2-fluoro-6-hydroxyphenyl)quinazolin-4-yl)piperazin-1-yl) prop-2-en-1-one] | ++ (++ indicates binding activity from 50 to 90%) | –
9 | C=CC(=O)N1CCN(c2nc(OCC3OCCO3)nc3c(F)c(-c4c(O)cccc4F)c(Cl)cc23)CC1 [Example I-163, 1-(4-(2-((1,3-dioxolan-2-yl)methoxy)-6-chloro-8-fluoro-7-(2-fluoro-6-hydroxyphenyl)quinazolin-4-yl)piperazin-1-yl) prop-2-en-1-one] | +++ (+++ indicates binding activity greater than 90%) | –
10 | C=CC(=O)N1C[C@H](C)N(c2ncnc3c(F)c(-c4c(O)cccc4F)c(Cl)cc23)C[C@H]1C [III-1, 1-((2R,5S)-4-(6-chloro-8-fluoro-7-(2-fluoro-6-hydroxy-phenyl)quinazolin-4-yl)-2,5-dimethyl-piperazin-1-yl)prop-2-en-1-one] | – | Binding % (compounds of structure (III)): ++ (++ indicates activity from 50% to 90%)
11 | C=CC(=O)N1[C@H](C)CN(c2ncnc3c(F)c(-c4c(O)cccc4F)c(Cl)cc23)C[C@@H]1C (atropisomer, axis not shown) [III-6] | – | Binding % (compounds of structure (III)): +++ (+++ indicates binding activity greater than 90%)
12 | C=CC(=O)N1CCN(c2nc(OCCN(CC)CC)nc3c(F)c(-c4c(C)ccc5[nH]ncc45)c(Cl)cc23)CC1 [Example I-130, 1-(4-(6-chloro-2-(2-(diethyl-amino)ethoxy)-8-fluoro-7-(5-methyl-1H-indazol-4-yl)quinazolin-4-yl)piperazin-1-yl) prop-2-en-1-one] | +++ (+++ indicates binding activity greater than 90%) | –
13 | C=CC(=O)N1CCN(c2ncnc3c(F)c(-c4c(O)cccc4F)c(Cl)cc23)[C@@H](C(C)C)C1 [III-34, 1-((3S)-4-(6-chloro-8-fluoro-7-(2-fluoro-6-hydroxy-phenyl)quinazolin-4-yl)-3-isopropyl-piperazin-1-yl)prop-2-en-1-one] | – | Binding % (compounds of structure (III)): + (+ indicates binding activity up to 50%)
14 | C=CC(=O)N1CCN(c2ncnc3c(F)c(-c4c(O)cccc4F)c(Cl)cc23)CC1C (stereo not shown) [III-5, 1-(4-(6-chloro-8-fluoro-7-(2-fluoro-6-hydroxy-phenyl)quinazolin-4-yl)-2-methyl-piperazin-1-yl)prop-2-en-1-one] | – | Binding % (compounds of structure (III)): ++ (++ indicates activity from 50% to 90%)
15 | C=CC(=O)N1CCN(c2nc(N3CC4(COC4)C3)nc3c(F)c(-c4c(O)cccc4F)c(Cl)cc23)CC1 [Example I-148, 1-(4-(6-chloro-8-fluoro-7-(2-fluoro-6-hydroxyphenyl)-2-(2-oxa-6-azaspiro[3.3]heptan-6-yl)quinazolin-4-yl)piperazin-1-yl) prop-2-en-1-one] | +++ (+++ indicates binding activity greater than 90%) | –
16 | C=CC(=O)N1CCN(c2nc(NC3CCN(c4ncccn4)CC3)nc3c(F)c(-c4c(O)cccc4F)c(Cl)cc23)CC1 [Example I-190, 1-(4-(6-chloro-8-fluoro-7-(2-fluoro-6-hydroxyphenyl)-2-((1-(pyrimidin-2-yl)piperidin-4-yl)amino)quinazolin-4-yl)piperazin-1-yl) prop-2-en-1-one] | + (+ indicates binding activity up to 50%) | –
17 | C=CC(=O)N1CCN(c2nc(NC3CCOC3)nc3c(F)c(-c4cc(O)cc5ccccc45)c(Cl)cc23)CC1 (stereo not shown) [Example I-71, 1-(4-(6-chloro-8-fluoro-7-(3-hydroxy-naphthalen-1-yl)-2-(tetrahydro-furan-3-ylamino)quinazolin-4-yl)piperazin-1-yl)prop-2-en-1-one] | +++ (+++ indicates binding activity greater than 90%) | –
18 | C=CC(=O)N1CCN(c2ncnc3c(F)c(-c4c(O)cccc4F)c(Cl)cc23)CC1C(F)(F)F (stereo not shown) [III-11, 1-(4-(6-chloro-8-fluoro-7-(2-fluoro-6-hydroxy-phenyl)quinazolin-4-yl)-2-(trifluoro-methyl)piperazin-1-yl)prop-2-en-1-one] | – | Binding % (compounds of structure (III)): +++ (+++ indicates binding activity greater than 90%)
19 | C=CC(=O)N1CCN(c2nc(OCCc3ccccn3)nc3c(F)c(-c4c(O)cccc4F)c(Cl)cc23)CC1 (atropisomer, axis not shown) [Example I-103, (S)-1-(4-(6-chloro-8-fluoro-7-(2-fluoro-6-hydroxyphenyl)-2-(2-(pyridin-2-yl)ethoxy)quinazolin-4-yl)piperazin-1-yl) prop-2-en-1-one] | +++ (+++ indicates binding activity greater than 90%) | –
20 | C=CC(=O)N1CCN(c2nc(OCc3cnc(C)nc3)nc3c(F)c(-c4c(O)cccc4F)c(Cl)cc23)CC1 [Example I-101, 1-(4-(6-chloro-8-fluoro-7-(2-fluoro-6-hydroxyphenyl)-2-((2-methyl-pyrimidin-5-yl)methoxy)quinazolin-4-yl)piperazin-1-yl) prop-2-en-1-one] | +++ (+++ indicates binding activity greater than 90%) | –
21 | C=CC(=O)N1CCN(c2nc(OCc3cccnn3)nc3c(F)c(-c4c(O)cccc4F)c(Cl)cc23)CC1 [Example I-119, 1-(4-(6-chloro-8-fluoro-7-(2-fluoro-6-hydroxyphenyl)-2-(pyridazin-3-ylmethoxy)quinazolin-4-yl)piperazin-1-yl) prop-2-en-1-one] | + (+ indicates binding activity up to 50%) | –
22 | C=CC(=O)N1CCN(c2ncnc3cc(-c4c(F)cccc4C(F)F)c(Cl)cc23)CC1 [II-5, 1-(4-(6-chloro-7-(2-(difluoromethyl)-6-fluorophenyl)quinazolin-4-yl)piperazin-1-yl)prop-2-en-1-one] | – | Binding % (compounds of structure (II)): + (+ indicates binding activity up to 50%)
23 | C=CC(=O)N1CCN(c2nc(OCc3ccccn3)nc3c(F)c(-c4c(O)cccc4F)c(Cl)cc23)CC1 [Example I-112, 1-(4-(6-chloro-8-fluoro-7-(2-fluoro-6-hydroxyphenyl)-2-(pyridin-2-ylmethoxy)quinazolin-4-yl)piperazin-1-yl) prop-2-en-1-one] | +++ (+++ indicates binding activity greater than 90%) | –
24 | C=CC(=O)N1CCN(c2nc(NC3CCN(C(C)C)CC3)nc3c(F)c(-c4c(O)cccc4F)c(Cl)cc23)CC1 [Example I-84, 1-(4-(6-chloro-8-fluoro-7-(2-fluoro-6-hydroxyphenyl)-2-(1-isopropyl-piperidin-4-ylamino)quinazolin-4-yl)piperazin-1-yl)prop-2-en-1-one] | +++ (+++ indicates binding activity greater than 90%) | –
25 | C=CC(=O)N1CCN(c2nc(OCCN3CCOCC3)nc3c(F)c(-c4c(O)cccc4F)c(Cl)cc23)CC1 (atropisomer, axis not shown) [Example I-28, (R)-1-(4-(6-chloro-8-fluoro-7-(2-fluoro-6-hydroxyphenyl)-2-(2-morpholino-ethoxy)quinazolin-4-yl)piperazin-1-yl)prop-2-en-1-one] | + (+ indicates binding activity up to 50%) | –
